Measured values reported in the supplement of paper PMC11061612.

Legend:
Experiment in all cases: Bliss excess, mean over the matrix (fraction); higher = more synergy
[1] = system: NAMALWA (Burkitt's Lymphoma)
Method in brief: (§1)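 Bliss excess equals the observed combination effect minus the expected value EA + EB − EA·EB, where EA and EB are the effects of each agent alone. Combination Emax is the second-highest inhibition within the matrix. Inhibition was scaled from CellTiter-Glo 2.0 luminescence, with 0 set by vehicle wells and 1 by blank wells, after 72 hours of two-drug dosing of cells plated in 1536-well plates.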

[2] = system: NCI-H1963 (Small Cell Lung Carcinoma)
Method in brief: as §1

[3] = system: SAT (Head and Neck Carcinoma)
Method in brief: as §1

[4] = system: C-33-A (Cervical Carcinoma)
Method in brief: as §1

[5] = system: CPC-N (Small Cell Lung Carcinoma)
Method in brief: as §1

[6] = system: SUP-M2 (T-Cell Non-Hodgkin's Lymphoma)
Method in brief: as §1

[7] = system: OAW-28 (Ovarian Carcinoma)
Method in brief: as §1

[8] = system: SKG-IIIa (Cervical Carcinoma)
Method in brief: as §1

[9] = system: RCC-JW (Kidney Carcinoma)
Method in brief: as §1

[10] = system: KALS-1 (Glioblastoma)
Method in brief: as §1

[11] = system: SNU-C2B (Colorectal Carcinoma)
Method in brief: as §1

[12] = system: LS-1034 (Colorectal Carcinoma)
Method in brief: as §1

[13] = system: ES6 (Ewing's Sarcoma)
Method in brief: as §1

[14] = system: SiHa (Cervical Carcinoma)
Method in brief: as §1

[15] = system: SCC-4 (Oral Cavity Carcinoma)
Method in brief: as §1

[16] = system: DBTRG-05MG (Glioblastoma)
Method in brief: as §1

[17] = system: PL4 (Pancreatic Carcinoma)
Method in brief: as §1

[18] = system: LCLC-103H (Non-Small Cell Lung Carcinoma)
Method in brief: as §1

[19] = system: MOLP-8 (Plasma Cell Myeloma)
Method in brief: as §1

[20] = system: SK-N-SH (Neuroblastoma)
Method in brief: as §1

Structure (SMILES)	Bliss excess [1]	Bliss excess [2]	Bliss excess [3]	Bliss excess [4]	Bliss excess [5]	Bliss excess [6]	Bliss excess [7]	Bliss excess [8]	Bliss excess [9]	Bliss excess [10]	Bliss excess [11]	Bliss excess [12]	Bliss excess [13]	Bliss excess [14]	Bliss excess [15]	Bliss excess [16]	Bliss excess [17]	Bliss excess [18]	Bliss excess [19]	Bliss excess [20]
NC1(C(=O)N[C@@H](CCO)c2ccc(Cl)cc2)CCN(c2ncnc3[nH]ccc23)CC1 [Capivasertib] + CC(C)n1c(=O)n(C)c2cnc3cc(F)c(-c4ccc(OCCCN5CCCCC5)nc4)cc3c21 [AZD1390] (first compound max 10 µM, 7x7, partner max 0.3 µM)	0.0005	-0.0615	-0.0275	-0.0383	-0.0435	0.0202	-0.0674	-0.104	-0.0366	-0.054	-0.0775	-0.0447	-0.0981	-0.046	-0.045	-0.0418	-0.0225	-0.0712	-0.0032	-0.0626
COc1nnc2ccc(N3CCC(c4ccc(OCCN5CCN(C)C(=O)[C@H]5C)cc4)CC3)nn12 [AZD5153] + Cn1cnc2c(F)c(Nc3ccc(Br)cc3Cl)c(C(=O)NOCCO)cc21 [Selumetinib] (first compound max 1 µM, 7x7, partner max 10 µM)	-0.0375	-0.0176	0.002	0.0725	-0.0222	-0.0138	0.0279	0.0128	0.0214	-0.0421	0.019	0.0264	0.053	-0.0197	-0.0332	-0.014	-0.0089	0.0325	0.0094	-0.0142
CN(CCO)CC[C@H](CSc1ccccc1)Nc1ccc(S(=O)(=O)NC(=O)c2ccc(N3CCC([C@@H](O)c4ccccc4-c4ccc(Cl)cc4)CC3)cc2)cc1S(=O)(=O)C(F)(F)F [AZD4320] + Cc1cc2ncnn2cc1Nc1ncc2c(n1)n(C1CCOCC1)c(=O)n2C [AZD7648] (first compound max 1 µM, 7x7, partner max 10 µM)	0.0013	0.0483	-0.0621	-0.0164	0.0364	0.036	-0.0348	-0.0614	-0.0476	-0.0096	-0.0126	-0.0403	-0.0494	-0.0385	-0.0568	-0.0015	-0.0631	-0.0303	-0.0125	0.0283
COc1cccc(OCCCN)c1-c1cc(Nc2cnc(C#N)cn2)n[nH]1 [Prexasertib] + CCc1c2c(nc3ccc(O)cc13)-c1cc3c(c(=O)n1C2)COC(=O)[C@]3(O)CC [SN-38] (first compound max 1 µM, 7x7, partner max 0.3 µM)	-0.0197	0.0138	-0.007	0.0583	0.0633	-0.0099	-0.0269	0.0683	-0.0065	0.0399	-0.0388	0.0888	0.0156	0.0357	0.0021	-0.0558	-0.0027	0.081	-0.082	-0.0778
NC1(C(=O)N[C@@H](CCO)c2ccc(Cl)cc2)CCN(c2ncnc3[nH]ccc23)CC1 [Capivasertib] + C[C@@H]1COCCN1C2=NC(=NC(=C2)C3(CC3)[S@](=N)(=O)C)C4=C5C=CNC5=NC=C4 [AZD6738] (first compound max 10 µM, 7x7, partner max 10 µM)	-0.0194	-0.0142	-0.0345	-0.065	-0.0117	0.0523	0.0005	-0.0602	-0.0713	-0.074	0.0158	-0.0782	-0.0479	0.0259	-0.109	0.0064	-0.0328	-0.0607	0.0357	-0.0576
